“And” between values parts separate entries of the source, which are not always exact repeats. Identical values can stand only once.
Tests used:
[1] = target: T1, OX2 (h) (Homo sapiens, UniProt O43614); assay: Abuse liability binding screen, OX2 (h) (agonist radioligand)
T1 sequence (O43614 1-444): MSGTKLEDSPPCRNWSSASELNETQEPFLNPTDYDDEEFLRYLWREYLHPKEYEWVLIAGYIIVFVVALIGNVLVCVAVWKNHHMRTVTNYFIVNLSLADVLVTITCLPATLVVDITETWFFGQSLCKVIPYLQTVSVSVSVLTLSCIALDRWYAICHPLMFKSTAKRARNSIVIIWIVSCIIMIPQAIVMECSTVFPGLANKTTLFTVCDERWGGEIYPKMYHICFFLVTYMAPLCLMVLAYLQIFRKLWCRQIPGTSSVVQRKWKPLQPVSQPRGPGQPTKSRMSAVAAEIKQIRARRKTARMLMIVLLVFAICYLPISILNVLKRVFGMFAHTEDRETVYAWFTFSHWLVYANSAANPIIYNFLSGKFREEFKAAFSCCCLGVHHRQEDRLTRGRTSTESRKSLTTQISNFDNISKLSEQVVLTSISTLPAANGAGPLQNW
Procedure: […]. The abuse liability screen included 44 targets (receptors, transporters, on gated-channel systems) related to the dopamine, norepinephrine, serotonin, gamma-aminobutyric acid (GABA), acetylcholine, N-methyl-D-aspartate (NMDA) cannabinoid and opioid neurotransmitter systems as recommended in FDA Draft guidance on Assessment of Abuse Potential of Drugs, January 2010.
(§1) Compound binding was calculated as a % inhibition of the binding of a radioactively labeled ligand specific for each target.
Results showing an inhibition or stimulation higher than 50% are considered to represent significant effects of the test compounds.

[2] = system: BZD (central); assay: Abuse liability binding screen, BZD (central) (agonist radioligand); settings: 2.5E−05M
Procedure: as §1

[3] = target: T2, μ-opioid receptor expressed in HEK cells (Mus musculus, UniProt P42866); assay: Opioid cell functional assay, opioid-agonist assay, HEK-μ; type: cell-based
T2 construct: expressed in transfected cells; host or cells: HEK (human embryonic kidney) cells

[4] = Plasma Cmax in HD patients; settings: human
[5] = target: μ (MOP) (h) (Homo sapiens, UniProt P35372); assay: biochemical; type: binding
Procedure: as §1

[6] = system: Cl^− channel (GABA-gated); assay: Abuse liability binding screen, Cl− channel (GABA-gated) (antagonist radioligand); settings: 2.5E−05M
Procedure: as §1

[7] = target: T2, μ-opioid receptor expressed in HEK cells; assay: Opioid cell functional assay, opioid-antagonist assay, HEK-μ (CTOP); type: cell-based
[8] = system: ER (non-selective) (h); assay: Abuse liability binding screen, ER (non-selective) (h) (agonist radioligand); parameters: species or system human; settings: 2.5E−05M
Procedure: as §1

[9] = system: kainate; assay: Abuse liability binding screen, kainate (agonist radioligand); settings: 2.5E−05M
Procedure: as §1

[10] = system: PCP; assay: Abuse liability binding screen, PCP (antagonist radioligand); settings: 2.5E−05M
Procedure: as §1

[11] = target: T3, cloned human δ-opioid receptor expressed in CHO (Homo sapiens, UniProt P41143); assay: Opioid cell functional assay, opioid-agonist assay, CHO-δ; type: cell-based; settings: cell functional assays
T3 construct: expressed in transfected cells; host or cells: CHO cells

[12] = target: κ (KOP) (Rattus norvegicus, UniProt P34975); assay: Binding screen and IC50 determination, κ (KOP) (agonist radioligand)
Procedure: as §1

[13] = system: Na^+ channel (site 2); assay: Abuse liability binding screen, Na+ channel (site 2) (antagonist radioligand); settings: 2.5E−05M
Procedure: as §1

[14] = target: T2, μ-opioid receptor expressed in HEK cells; assay: Opioid receptor binding study, HEK-μ, [3H]DAMGO
[15] = system: NMDA; assay: Abuse liability binding screen, NMDA (antagonist radioligand); settings: 2.5E−05M
Procedure: as §1

[16] = target: T4, cloned human κ-opioid receptor expressed in CHO (Homo sapiens, UniProt P41145); assay: cell-based; parameters: Max Inh (%): dose or concentration left out as unconfirmed; settings: opioid-antagonist assay
[17] = system: glycine (strychnine−insensitive); type: binding; settings: 2.5E−05M
Procedure: as §1

[18] = system: GABA transporter; assay: Abuse liability binding screen, GABA transporter (antagonist radioligand); settings: 2.5E−05M
Procedure: as §1

[19] = target: T3, cloned human δ-opioid receptor expressed in CHO; assay: Opioid receptor binding study, CHO-δ, [3H]DPDPE; settings: @ 25,000 nM, [3H]DADLE, read-out: % inhibition printed in the IC50 column
[20] = system: AMPA; assay: Abuse liability binding screen, AMPA (antagonist radioligand); settings: 2.5E−05M
Procedure: as §1

[21] = target: T4, cloned human κ-opioid receptor expressed in CHO; assay: cell-based; settings: opioid-agonist assay
[22] = target: T4, cloned human κ-opioid receptor expressed in CHO; assay: biochemical; type: binding
[23] = against a μ-opioid receptor agonist ligand

T2 sequence (P42866 whole entry): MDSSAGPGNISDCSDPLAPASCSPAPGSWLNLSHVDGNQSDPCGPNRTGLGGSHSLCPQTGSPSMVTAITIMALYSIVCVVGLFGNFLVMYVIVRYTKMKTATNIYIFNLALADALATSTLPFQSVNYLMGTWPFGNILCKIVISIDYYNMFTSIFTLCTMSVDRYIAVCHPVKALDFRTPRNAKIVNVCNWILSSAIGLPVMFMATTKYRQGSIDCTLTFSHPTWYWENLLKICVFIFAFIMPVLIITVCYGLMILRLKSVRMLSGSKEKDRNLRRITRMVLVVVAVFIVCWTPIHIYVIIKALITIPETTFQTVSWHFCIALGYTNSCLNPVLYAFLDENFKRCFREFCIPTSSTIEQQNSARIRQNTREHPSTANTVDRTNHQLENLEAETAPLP
κ (KOP), sequence (P34975 whole entry): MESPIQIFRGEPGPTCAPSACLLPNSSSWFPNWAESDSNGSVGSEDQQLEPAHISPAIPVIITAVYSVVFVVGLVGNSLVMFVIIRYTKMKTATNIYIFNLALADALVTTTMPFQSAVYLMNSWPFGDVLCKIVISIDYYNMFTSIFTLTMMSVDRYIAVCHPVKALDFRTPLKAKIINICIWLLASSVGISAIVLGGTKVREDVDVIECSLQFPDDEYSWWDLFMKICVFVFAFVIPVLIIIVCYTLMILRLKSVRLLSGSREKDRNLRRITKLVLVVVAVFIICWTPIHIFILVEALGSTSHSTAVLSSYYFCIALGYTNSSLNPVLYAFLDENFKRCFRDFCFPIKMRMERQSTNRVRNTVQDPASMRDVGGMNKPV
μ (MOP) (h), sequence (P35372 whole entry): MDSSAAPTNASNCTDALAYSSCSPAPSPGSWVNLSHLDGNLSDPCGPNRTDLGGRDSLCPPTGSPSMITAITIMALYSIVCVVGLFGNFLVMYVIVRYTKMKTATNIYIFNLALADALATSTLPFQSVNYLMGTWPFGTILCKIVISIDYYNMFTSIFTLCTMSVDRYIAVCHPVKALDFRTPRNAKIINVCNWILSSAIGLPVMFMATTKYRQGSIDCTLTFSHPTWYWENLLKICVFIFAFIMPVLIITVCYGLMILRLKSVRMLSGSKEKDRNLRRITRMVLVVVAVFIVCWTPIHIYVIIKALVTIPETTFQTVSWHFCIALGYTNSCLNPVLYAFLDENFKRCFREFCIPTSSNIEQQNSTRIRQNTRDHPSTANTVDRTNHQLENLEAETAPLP
T4 sequence (P41145 whole entry): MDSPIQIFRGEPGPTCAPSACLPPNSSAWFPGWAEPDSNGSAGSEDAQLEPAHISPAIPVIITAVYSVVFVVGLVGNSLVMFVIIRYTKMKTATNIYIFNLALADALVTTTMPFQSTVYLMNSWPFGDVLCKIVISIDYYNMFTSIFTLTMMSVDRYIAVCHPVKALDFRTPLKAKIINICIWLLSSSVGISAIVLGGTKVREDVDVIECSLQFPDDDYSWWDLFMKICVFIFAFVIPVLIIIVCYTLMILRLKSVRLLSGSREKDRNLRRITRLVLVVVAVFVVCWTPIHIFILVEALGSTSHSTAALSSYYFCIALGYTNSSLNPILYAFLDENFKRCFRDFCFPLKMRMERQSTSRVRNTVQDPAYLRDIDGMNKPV
T3 sequence (P41143 whole entry): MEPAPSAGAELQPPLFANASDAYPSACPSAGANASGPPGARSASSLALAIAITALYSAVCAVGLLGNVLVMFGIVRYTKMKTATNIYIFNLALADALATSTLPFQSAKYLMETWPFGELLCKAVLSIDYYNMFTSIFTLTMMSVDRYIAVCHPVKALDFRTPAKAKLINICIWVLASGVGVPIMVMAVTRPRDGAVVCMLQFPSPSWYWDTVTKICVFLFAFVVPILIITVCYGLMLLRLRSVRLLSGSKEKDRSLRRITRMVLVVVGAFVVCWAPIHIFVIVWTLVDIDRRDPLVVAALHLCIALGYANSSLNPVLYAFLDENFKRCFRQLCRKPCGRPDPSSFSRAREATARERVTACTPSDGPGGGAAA

SMILES: Oc1ccc2c3c1O[C@H]1[C@@H](O)CC[C@@]4(O)[C@@H](C2)N(CC2CCC2)CC[C@]314 [Nalbuphine, nalbuphine]
- % Inhibition of Control Specific Binding 1st ([1]; 1.0E−05M): −11.3%
- % Inhibition of Control Specific Binding 2nd ([1]; 1.0E−05M): −7.4%
- % Inhibition of Control Specific Binding Mean ([1]; 1.0E−05M): −9.4%

SMILES: O=C(O)CC(CO)CN1CC[C@]23c4c5ccc(O)c4O[C@H]2[C@@H](O)CC[C@@]3(O)[C@H]1C5 (some centres unmarked) [Compound 1]
- % Inhibition of Control Specific Binding 1st [2]: 3.4%
- % Inhibition of Control Specific Binding 2nd [2]: 3.0%
- % Inhibition of Control Specific Binding Mean [2]: 3.2%
- EC50 ([3]; EC50 (nM), opioid-agonist assay, HEK-μ): 78000 nM and ~78000 nM
- EC50 ([3]; EC50, μ-opioid receptor partial agonist/antagonist): ~173000 nM
- μ-agonist EC50 relative to Cmax in HD patients ([3]; EC50 exceeding Cmax): ~4 fold
- Max Inh (%) ([3]; opioid-agonist assay, HEK-μ): 61%
- Cmax [4]: ~16 µM
- % Inhibition of Control Specific Binding Mean ([5]; 2.5E−05M): 92.0%
- nH ([5]; IC50 determination): 0.6
- IC50 [5, 23]: 3.2 µM
- Ki [5, 23]: 1.3 µM
- % Inhibition of Control Specific Binding 1st [6]: 1.7%
- % Inhibition of Control Specific Binding 2nd [6]: 1.0%
- % Inhibition of Control Specific Binding Mean [6]: 1.3%
- IC50 [7]: > 30 µM
- inhibition at 30 µM ([7]; HEK293, read-out: Max Inh (%)): -1%
- % Inhibition of Control Specific Binding 1st [8]: −8.0%
- % Inhibition of Control Specific Binding 2nd [8]: 4.3%
- % Inhibition of Control Specific Binding Mean [8]: −1.9%
- % Inhibition of Control Specific Binding 1st [9]: 6.3%
- % Inhibition of Control Specific Binding 2nd [9]: 34.1%
- % Inhibition of Control Specific Binding Mean [9]: 20.2%
- % Inhibition of Control Specific Binding 1st [10]: −12.2%
- % Inhibition of Control Specific Binding 2nd [10]: −1.4%
- % Inhibition of Control Specific Binding Mean [10]: −6.8%
- activity at the delta receptor [11]: no activity
- IC50 [12]: 74 µM
- Ki [12]: 49 µM
- nH ([12]; IC50 determination): 0.7
- % Inhibition of Control Specific Binding 1st [13]: −4.4%
- % Inhibition of Control Specific Binding 2nd [13]: 21.0%
- % Inhibition of Control Specific Binding Mean [13]: 8.3%
- % Inhibition of Control Specific Binding 1st ([1]; 2.5E−05M): −9.6%
- % Inhibition of Control Specific Binding 2nd ([1]; 2.5E−05M): −11.9%
- % Inhibition of Control Specific Binding Mean ([1]; 2.5E−05M): −10.7%
- IC50 [14]: 3.2 µM
- Ki [14]: 1.3 µM
- NAL Selectivity relative to Comp1 / M5 (Compound 1 or M5 Ki/NAL Ki) ([14]; μ-receptor): 929
- % Inhibition of Control Specific Binding 1st [15]: −12.5%
- % Inhibition of Control Specific Binding 2nd [15]: −9.8%
- % Inhibition of Control Specific Binding Mean [15]: −11.1%
- Max Inh (%) [16]: −10% @
- IC50 ([16]; Nor-BNI, read-out: EC50 (nM) column (IC50 per footnote)): > 30000 nM
- % Inhibition of Control Specific Binding 1st [17]: −13.5%
- % Inhibition of Control Specific Binding 2nd [17]: −9.7%
- % Inhibition of Control Specific Binding Mean [17]: −11.6%
- % Inhibition of Control Specific Binding 1st [18]: 7.4%
- % Inhibition of Control Specific Binding 2nd [18]: −6.2%
- % Inhibition of Control Specific Binding Mean [18]: 0.6%
- inhibition at 25 µM [19]: 11%
- % Inhibition of Control Specific Binding 1st [20]: 0.9%
- % Inhibition of Control Specific Binding 2nd [20]: −3.7%
- % Inhibition of Control Specific Binding Mean [20]: −1.4%
- EC50 [21]: > 100 µM
- Max Inh (%) [21]: 14%
- IC50 ([22]; CHO-κ, [3H]U 69593): 74 µM
- Ki ([22]; CHO-κ, [3H]U 69593): 49 µM
- NAL Selectivity relative to Comp1 / M5 (Compound 1 or M5 Ki/NAL Ki) ([22]; k-receptor): 13,611
